Test results as given in paper PMC11428108 (Frontiers in Molecular Neuroscience, 2024).

How the values were obtained:
male C57BL/6J mice = test: Intracranial self-stimulation (ICSS) thresholds in mice with saline or nicotine osmotic minipumps; assay type: in vivo; conditions: SR9883 10 mg kg^−1 IP
Source text: Mice were anesthetized with a mixture of isoflurane (1–3%) and oxygen vapor then positioned in a stereotaxic frame in the flat-skull position (Kopf Instruments) ([Fowler et al., 2013]; [Johnson et al., 2008]). A stainless-steel bipolar electrode (Plastics One) was implanted into the lateral hypothalamus according to the following stereotaxic coordinates: Anterior/Posterior: −0.5 mm from bregma; […] Dorsal/Ventral: −5.0 mm from brain surface ([Fowler et al., 2013]; [Johnson et al., 2008]; [Paxinos and Franklin, 2001]). Mice were permitted 72 h to recover from surgery prior to training in the ICSS procedure. Mice were permitted to respond for intracranial electrical stimulation according to a modification of the discrete-trial current-threshold procedure developed by Kornetsky and colleagues ([Gill et al., 2004]), as previously described ([Fowler et al., 2013]; [Johnson et al., 2008]). […] The frequency of the stimulation was selected for each mouse so that current-intensity thresholds were within 25 to 400 μA, permitting threshold elevations and reductions to be reliably detected. This frequency for each mouse was held constant throughout the experiment. […] The time between the onset of the non-contingent stimulus and a positive response was recorded as the response latency. […] Effects of intraperitoneal injections of SR9883 on ICSS thresholds were assessed >7 days after minipump implantation. Concentration-response curves of SR9883 actions in nAChR-expressing HEK cells and oocytes were fitted to the Hill equation using a nonlinear least squares curve fit method and efficacy and potency values were calculated as previously described ([Wang et al., 2015]). […] For the ICSS threshold experiment, percentages of baseline reward threshold scores were calculated by expressing the absolute threshold scores as a percentage of the scores obtained during baseline. […] Response latency data were analyzed in the same manner as the threshold data. […] Effects of SR9883 on responding for food pellets in rats was analyzed by a two-tailed paired t test. […]

male Wistar rats = test: Operant responding for food pellets (FR5TO20); assay type: in vivo; conditions: SR9883 10 mg kg^−1 IP, food-restricted rats; p = 0.9868
Method: Operant chambers (Med Associates, East Fairfield, VT, United States) were used to assess responding by rats for food pellets and intravenous nicotine infusions. […] All rats were food-restricted to maintain their body weight at approximately 85% that of free-feeding weights. They were then trained to press an active lever for 45 mg food pellets on a fixed ratio 5 time-out 20 s (FR5TO20) schedule of reinforcement. […] Rats responded for food rewards until a reliable responding was achieved, defined as >90 pellets earned per 60 min session across three consecutive sessions. […] Rats were anesthetized using 1–3% isoflurane inhalation in oxygen and catheters were implanted into the left jugular vein. […]
Concentration-response curves of SR9883 actions in nAChR-expressing HEK cells and oocytes were fitted to the Hill equation using a nonlinear least squares curve fit method and efficacy and potency values were calculated as previously described ([Wang et al., 2015]). […] For the ICSS threshold experiment, percentages of baseline reward threshold scores were calculated by expressing the absolute threshold scores as a percentage of the scores obtained during baseline. […] Response latency data were analyzed in the same manner as the threshold data. […] Effects of SR9883 on responding for food pellets in rats was analyzed by a two-tailed paired t test. […]

[1] = target: T1, human (α4)2(β2)2α5 nAChRs (Homo sapiens, UniProt P17787+P30532+P43681); test: FLEXstation membrane potential assay in HEK cells stably expressing (α4)2(β2)2α5 nAChRs; assay type: cell-based
T1 construct: expressed in transfected cells
T1 sequence (P43681 29-627 limits assumed): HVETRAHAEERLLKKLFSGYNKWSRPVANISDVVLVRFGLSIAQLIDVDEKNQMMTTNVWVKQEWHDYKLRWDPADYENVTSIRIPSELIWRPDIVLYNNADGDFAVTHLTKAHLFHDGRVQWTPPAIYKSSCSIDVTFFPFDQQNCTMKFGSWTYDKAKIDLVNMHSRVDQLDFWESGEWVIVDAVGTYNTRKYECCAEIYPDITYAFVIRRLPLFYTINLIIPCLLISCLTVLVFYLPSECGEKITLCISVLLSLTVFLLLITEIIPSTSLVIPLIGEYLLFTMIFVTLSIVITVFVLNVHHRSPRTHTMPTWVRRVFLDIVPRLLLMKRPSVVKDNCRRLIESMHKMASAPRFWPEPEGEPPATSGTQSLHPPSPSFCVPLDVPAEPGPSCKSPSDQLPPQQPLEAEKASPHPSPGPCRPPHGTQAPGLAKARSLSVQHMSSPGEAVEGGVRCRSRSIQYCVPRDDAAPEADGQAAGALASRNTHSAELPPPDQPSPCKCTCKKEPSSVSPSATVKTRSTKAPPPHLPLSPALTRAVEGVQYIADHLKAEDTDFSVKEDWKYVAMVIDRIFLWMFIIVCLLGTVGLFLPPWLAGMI
T1 sequence (P17787 26-502): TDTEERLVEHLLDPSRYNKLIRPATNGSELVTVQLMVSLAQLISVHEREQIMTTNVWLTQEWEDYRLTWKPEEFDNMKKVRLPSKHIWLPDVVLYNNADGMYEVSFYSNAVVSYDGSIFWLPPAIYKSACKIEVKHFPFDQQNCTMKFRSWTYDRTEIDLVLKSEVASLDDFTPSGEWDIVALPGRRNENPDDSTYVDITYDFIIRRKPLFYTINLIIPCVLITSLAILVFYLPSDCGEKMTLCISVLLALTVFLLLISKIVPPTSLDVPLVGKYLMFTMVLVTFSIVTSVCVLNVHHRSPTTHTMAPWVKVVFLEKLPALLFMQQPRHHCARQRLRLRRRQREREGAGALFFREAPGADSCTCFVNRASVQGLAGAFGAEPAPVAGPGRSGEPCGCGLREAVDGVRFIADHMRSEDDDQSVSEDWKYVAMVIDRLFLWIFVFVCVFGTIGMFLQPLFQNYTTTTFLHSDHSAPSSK
T1 sequence (P30532 23-468): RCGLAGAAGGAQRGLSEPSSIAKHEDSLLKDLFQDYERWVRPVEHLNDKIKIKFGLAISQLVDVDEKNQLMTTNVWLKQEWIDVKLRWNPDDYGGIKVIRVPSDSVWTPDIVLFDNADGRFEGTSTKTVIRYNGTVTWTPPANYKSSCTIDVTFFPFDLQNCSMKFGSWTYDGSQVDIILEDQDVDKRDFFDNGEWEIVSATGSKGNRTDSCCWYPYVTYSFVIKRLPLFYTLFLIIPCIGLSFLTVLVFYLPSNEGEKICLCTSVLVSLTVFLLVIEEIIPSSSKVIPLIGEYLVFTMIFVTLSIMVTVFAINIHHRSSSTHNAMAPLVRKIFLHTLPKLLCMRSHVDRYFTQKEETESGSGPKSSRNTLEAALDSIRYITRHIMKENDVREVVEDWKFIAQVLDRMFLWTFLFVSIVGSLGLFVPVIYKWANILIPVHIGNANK
Source text: Human embryonic kidney (HEK) cell lines stably expressing human (α4)2(β2)2β2/α4 (α4β2*) nAChRs, (α4)2(β2)2α5 nAChRs, (α4)2(β2)2β3 nAChRs, (α3)2(β4)2α3/β4 (α3β4*) nAChRs, (α3)2(β2)2α3/β2 (α3β2*) nAChRs, (α3)2(β4)2α5 nAChRs, or (α3)2(β2)2α5 nAChRs were maintained as described previously ([Wang et al., 2015]; [Kuryatov et al., 2005]; [Caligiuri et al., 2022]). The FLEXstation bench top scanning fluorometer from Molecular Devices was used to assay nAChR function in these cells, according to published protocols ([Wang et al., 2015]; [Kuryatov et al., 2005]). The membrane potential kit (Molecular Devices) was used according to the manufacturer’s protocols. Serial dilutions of SR9883 were manually added to the assay plate 15 min prior to recording. […] Compound dilutions were prepared in V-shaped 96-well plates (Fisher Scientific Co.) and added to cell culture wells at a rate of 20 μL s^−1 during recording. Cells were incubated at 29°C for 6–20 h prior to assays to upregulate nAChRs ([Wang et al., 2015]; [Kuryatov et al., 2005]). Data points were averaged from 3 to 4 responses from separate wells. Potency and efficacy were calculated using the Hill equation as described previously ([Wang et al., 2015]).
Concentration-response curves of SR9883 actions in nAChR-expressing HEK cells and oocytes were fitted to the Hill equation using a nonlinear least squares curve fit method and efficacy and potency values were calculated as previously described ([Wang et al., 2015]). Plasma and brain levels of SR9983 after oral administration were compared using a two-tailed paired t test. […] For the ICSS threshold experiment, percentages of baseline reward threshold scores were calculated by expressing the absolute threshold scores as a percentage of the scores obtained during baseline. The baseline values were the mean thresholds on the three sessions prior to drug injections. Response latency data were analyzed in the same manner as the threshold data. […] Effects of SR9883 on responding for food pellets in rats was analyzed by a two-tailed paired t test. […] Significant main or interaction effects in ANOVAs were followed by Bonferroni or Newman–Keuls post-hoc tests as appropriate. All statistical analyses were performed using GraphPad Prism software with α set to 0.05.

- Effect on maximum response to nicotine ([1]; SR9883 10 μM, nicotine 0.001–50 μM): no effect
- EC50 ([1]; SR9883 0.0005–10 μM on response to EC20-30 nicotine, HEK cells, ±SEM): 321 ± 98.2 nM
- nHill ([1]; SR9883 0.0005–10 μM on response to EC20-30 nicotine, ±SEM): 0.8620 ± 0.1564
- Efficacy ([1]; response to EC20-30 nicotine with SR9883 relative to nicotine alone, ±SEM): 146.18 ± 10.93%
SMILES: N#Cc1cccc(-n2nnc(-c3cccnc3)n2)c1 [SR9883, 3-(5-(pyridin-3-yl)-2H-tetrazol-2-yl)benzonitrile]
- ICSS response latencies (male C57BL/6J mice; minipumps delivering either saline or nicotine): had no effect
- ICSS thresholds (male C57BL/6J mice; nicotine-delivering osmotic minipumps (24 mg kg^−1 per day), p = 0.0278 vs vehicle): elevated
- ICSS thresholds (male C57BL/6J mice; saline-delivering osmotic minipumps): had no effect
- Food responding (food pellets earned) (male Wistar rats): had no effect
